Converted amounts (≈) assume the structure as drawn.

This is an account of results in ChEMBL document CHEMBL2331517, “Songaricalarins A-E, cytotoxic oplopane sesquiterpenes from Ligularia songarica” (J Nat Prod, 2013).

A short description of this experiment: Cytotoxicity against human KBVIN cells. It is filed as functional, cell-based.

Regarding `COc1cc([C@@H]2c3cc4c(cc3[C@@H](O[C@@H]3O[C@@H]5CO[C@@H](C)O[C@H]5[C@H](O)[C@H]3O)[C@H]3COC(=O)[C@H]23)OCO4)cc(OC)c1O` [ETOPOSIDE], a half-maximal effect (EC50) was put at 8.8 µg/mL (≈ 15 µM).

Broadly, the EC50 is the concentration giving half of the maximal effect. A higher EC50 goes with a less potent agent.
